Test results from article PMC7914367, “Dual-ligand supramolecular nanofibers inspired by the renin-angiotensin system for the targeting and synergistic therapy of myocardial infarction” (Theranostics, 2021).
Each block holds one molecule with its values, some of them ahead of it. Peptide text beside a SMILES is read from it. * marks the point of attachment. X1 = CN1/C(=C/C=C/C=C/C2=[N+](CCCCCC(=O)*)c3ccc4ccccc4c3C2(C)C)C(C)(C)c2c1ccc1ccccc21

Columns and labels:
[1] = test system: p-AKT, Bax/Bcl-2, cleaved caspase-3; assay: Western blot of apoptosis-related proteins in OGD NRCMs; type: cell-based, rat; conditions: vs OGD group, n = 3
Procedure: AKT, p-AKT, Bax, Bcl-2, cleaved caspase-3, P65, TGF-β1, Histone3, AT1R, GAPDH were quantified by western blot analysis. Protein concentration was determined using the bicinchoninic acid (BCA) method. SDS-PAGE was conducted to separate the proteins in each sample (30-50 µg of protein per lane), which were subsequently transferred to a PVDF membrane. The membranes were treated with blocking buffer for 2 h at room temperature and then incubated overnight with primary antibodies at 4 °C. The primary antibodies used included anti-Phospho-AKT (1:1000 dilution), anti-AKT (1:1000 dilution), anti-caspase-3 (1:1000 dilution), anti-Bcl-2 (1:100 dilution), anti-Bax (1:1000 dilution), anti-P65 (1:800 dilution), anti-TGF-β1 (1:1000 dilution), anti-Histone 3 (1:1000 dilution) and anti-AGTR1 (1:1000 dilution). The results were normalized by comparison to parallel western blots for glyceraldehyde 3-phosphate dehydrogenase (GAPDH, 1:8000 dilution). Optical density was measured using an image processing analysis program.

[2] = test system: NRCMs; assay: TUNEL staining of OGD NRCMs; type: cell-based, rat; conditions: 10 μM, 2-3 h, OGD group 26.70%, n = 3
[3] = test system: MI mouse model; assay: In vivo mechanism: caspase-3 IHC, α-SMA immunofluorescence, type I collagen, TGF-β1, serum cytokines; design: species or system C57BL/6 mice; conditions: MI mice, n = 5
Procedure: Frozen sections were prepared in vivo, as described previously. For drugs distribution, near-infrared laser imager (GE Amersham Typhoon, Sweden) was used to capture full cross section of hearts. For co-localization experiments, the mice hearts were dissected 24 h post-injection of drugs. Anti-AT1R primary antibody (1:200 dilution) was used as the primary antibody. For fibrosis investigation, the frozen sections were incubated with primary antibodies against α-SMA (1:400 dilution). The staining signals were visualized using FITC-labeled Goat Anti-Rabbit IgG (1:200 dilution) or Cy3-labeled Goat Anti-Rabbit IgG (1:200 dilution). The sections were counterstained with DAPI and examined under a laser confocal scanning microscope (Leica TCS SP8, Germany).
The heart tissues were fixed in 4% paraformaldehyde, dehydrated in ethanol, cleared in xylene, and embedded in paraffin. The samples were then cut into 6 μm sections on a microtome and deparaffinized. The sections were blocked by incubating with 1% BSA at room temperature for 30 min and then incubated overnight with anti-cleaved caspase-3 (1:700 dilution), anti-AT1R (1:100 dilution), anti-Collagen I (1:200 dilution) at 4 °C. Next, the sections were washed and incubated with secondary antibodies (1:500 dilution) at room temperature. The tissue sections were incubated with diaminobenzidine and counterstained with hematoxylin, dehydrated, and mounted before viewing under a microscope.
(§1) The serum and CM were collected at the indicated time points from the different groups of mice. The levels of TNF-α, IL-6, ALT, Cre, and TGF-β1 were measured using ELISA kits according to the manufacturer's protocol. The absorbance was measured at 450 nm using a microplate reader.

[4] = test system: NRCMs; assay: Intracellular ROS with DHE probe; type: cell-based, rat; conditions: OGD NRCMs, 10 μM; OGD group 5.72-fold; n = 3
Procedure: The cells were counterstained with DAPI and were observed under a fluorescence microscope (details in Supporting Information). […]
(§2) manufacturer ’s protocol. Cells were then stained with DAPI. The TUNEL positive cells were observed by the fluorescence microscope (λexc = 488 nm for TUNEL, λexc = 405 […]
Intracellular ROS was quantified with dihydroethidium (DHE). After incubated with different treatments under OGD condition, NRCMs were then cultured with DMEM medium containing […] of DHE for 30 min at 37 ℃ and then wash ed twice with PBS. Nucleuses of NRCMs were dyed by Hoechst 33342 stain solution for 30 min at 37 °C. Intracellular ROS were detected by the fluorescence microscope (λexc = 532 nm for DHE, λexc = 405 nm for Hoechst 33342).
Adult male C57BL/6 mice (20-30g, 8-10 weeks old) were purchased from the laboratory animal center of Southern Medical University. For the MI model, mice were subjected to permanent l eft anterior descending (LAD) ligation as described previously. In brief, the animals were anesthetized using 1.5% sodium pentobarbital (50 mg/kg) through intraperitoneal i njection, and mice were ventilated with a rodent ventilator subsequently. We exposed mice hearts by the fourth intercostal space incision and a subsequent pericardium removal. The LAD was ligated using an 8-0-prolene suture permanently to perform MI generation. […]

[5] = test system: MI mouse model; assay: Echocardiography post-MI; type: in vivo, C57BL/6 mice; conditions: MI mice, 4th week, tail vein every 2 days (TDCNfs 1084.16, T+A 328.96+576, Tel 328.96, Ang1-7 576 μg/kg); MI group approx 16%; n = 5
Procedure: (§3) Adult male C57BL/6 mice (20-30 g, 8-10 week) were purchased from the laboratory animal center of Southern Medical University, China. The protocols were approved according to the Zhujiang Hospital of Southern Medical University animal care and use committee guidelines, which conform to the guide for the care and use of laboratory animals published by the US National Institutes of Health (8th edition, 2011). […] Next, 100 µL of different drugs were administered intravenously through tail vein injection every 2 days for 3 weeks, while the mice in the Sham and MI groups were treated with an equal volume of PBS.
Twenty-eight days after surgery, the mice were anesthetized through the inhalation of isoflurane (1-1.5%) in O2 and echocardiographic examination was performed using a Vevo 2100 System equipped with a 30 MHz transducer (FUJIFILM Visual Sonics, Canada). The LVEDD, LVESD, LVEFs, and LVFS were measured. All measurements were repeated for at least three consecutive pulsation cycles and the data were averaged for statistical analysis. […]
as §2
(§4) Intracellular ROS was quantified with dihydroethidium (DHE). […] Intracellular ROS were detected by the fluorescence microscope (λexc = 532 nm for DHE, λexc = 405 nm for Hoechst 33342). […]

[6] = test system: NRCFs; assay: Conditioned medium interference experiments (TGF-β1 in CM, α-SMA in NRCFs); type: cell-based, rat; conditions: NRCFs cultured 24 h with conditioned medium of pretreated OGD NRCMs, immunofluorescence, n = 3
Procedure: Next, the cells were blocked by incubating with goat serum for 30 min and incubated with primary antibodies overnight at 4 °C. The primary antibodies used here included anti-AT1R (1:200 dilution), anti-cTNT (1:500 dilution), anti-P65 (1:800 dilution), and anti‐α-SMA (1:400 dilution). The cells were incubated with FITC-labeled Goat Anti-Rabbit IgG (1:200 dilution) or Cy3-labeled Goat Anti-Mouse IgG (1:200 dilution) for 2 h at room temperature. The cells were counterstained with DAPI and imaged using a fluorescence microscope (Leica Dmi8, Germany).
CM from untreated or compound-treated cells were produced as follows. NRCMs were seeded in 35 mm culture dishes at 1 × 10^6 cells per well and incubated in growth medium containing different compounds or in media devoid of compounds for 12 h. Next, the media were replaced with serum-free medium, and the cells were cultured under hypoxia for 6 h. The CM was collected and centrifuged to culture NRCFs after a 12 h starvation period. Immunofluorescence of α-SMA was analyzed as per protocol after 24 h.
as §1

[7] = test system: MI mouse model; assay: Masson's trichrome staining, infarct size; type: in vivo, C57BL/6 mice; conditions: MI mice, 4 weeks, collagen area/LV area, MI group 36.60%, vehicle 1219.84 μg/kg, n = 5
Procedure: as §3
The mice were sacrificed at 4 weeks after the induction of MI, and hearts and major organs were harvested and fixed in 4% paraformaldehyde overnight and embedded in paraffin. The hearts were sectioned to 5 µm along the short axis transversely across the infarct zone. The major organs were sectioned to 5 µm along the short axis. Following deparaffinization and dehydration, the samples underwent H&E and Masson's trichrome staining. The sections were observed under a microscope to evaluate the therapeutic effect and safety of the drugs. The collagen and LV areas were measured using the Image-Pro Plus software (version 6.0; Media Cybernetics, Silver Spring, MD, USA). Infarct size (%) was calculated as the ratio of the collagen area to the LV area.

[8] = test system: infarcted heart; design: species or system C57BL/6 mice; conditions: mouse, in vivo
Procedure: ^Cy5.5TDCNfs, ^Cy5.5SAA1-7, and ^Cy5.5Ang1-7 were injected intravenously into the mice via tail vein at a dose of 0.2 mg. The images were captured at the prefixed time. Next, the mice were sacrificed to harvest their hearts and major organs. The samples were imaged at an excitation wavelength of 630 nm and an emission wavelength of 700 nm using an in vivo imaging system (FX PRO, BRUKER, Germany). The images were analyzed using the BRUKER Molecular Imaging Software. The targeting ability of compounds was defined by HTI = heart fluorescence emission/liver fluorescence emission.
Frozen sections were prepared in vivo, as described previously. For drugs distribution, near-infrared laser imager (GE Amersham Typhoon, Sweden) was used to capture full cross section of hearts. For co-localization experiments, the mice hearts were dissected 24 h post-injection of drugs. Anti-AT1R primary antibody (1:200 dilution) was used as the primary antibody. For fibrosis investigation, the frozen sections were incubated with primary antibodies against α-SMA (1:400 dilution). […]
manufacturer ’s protocol. […] The TUNEL positive cells were observed by the fluorescence microscope (λexc = 488 nm for TUNEL, λexc = 405 […]
as §4

Structure (SMILES): CCCc1nc2c(C)cc(-c3nc4ccccc4n3C)cc2n1Cc1ccc(-c2ccccc2C(=O)O)cc1 [Tel, telmisartan]
decrease of Bax/Bcl-2 value [1]: 76.3%
increase of p-AKT expression [1]: more than 10 fold
TUNEL-positive NRCMs [2]: 17.62%
α-SMA expression in the non-infarcted area ([3]; 4 weeks post-treatment, immunofluorescence): inhibited to a certain extent
caspase-3 expression in infarct border zone ([3]; immunohistochemistry): reduced moderately
fluorescence intensity of superoxide anion (DHE) compared to the control group [4]: 3.23 fold
left ventricular ejection fractions (LVEFs) [5]: 29.54%
reduction of α-SMA levels in NRCFs compared to the OGD group [6]: 20.48%
infarct size [7]: 25.80%

overlapping signals with AT1R in infarct zone compared with Cy5.5TDCNfs group [8]: significantly lower
Structure (SMILES): CC[C@H](C)[C@H](NC(=O)[C@H](Cc1ccc(O)cc1)NC(=O)[C@@H](NC(=O)[C@H](CCCNC(=N)N)NC(=O)[C@H](CC(=O)O)NC(=O)CNC(=O)CCCCC[N+]1=C(/C=C/C=C/C=C2/N(C)c3ccc4ccccc4c3C2(C)C)C(C)(C)c2c1ccc1ccccc21)C(C)C)C(=O)N[C@@H](Cc1c[nH]cn1)C(=O)N1CCC[C@H]1C(=O)O [Cy5.5Ang1-7] (X1-GDRVYIHP-OH)
